ChEMBL document CHEMBL1201862, “PubChem BioAssay data set” (2004)
Values belong to the molecule of their own block, whether it stands above or below them. Activity calls are given as the source filed them.

How the values were obtained:
Coagulation factor XII = target: T1, Coagulation factor XII (Homo sapiens, UniProt P00748); assay: activated coagulation factor XII inhibitor potency, concentration-effect curve, cell-free (AID 716); format: functional
T1 sequence (P00748 whole entry): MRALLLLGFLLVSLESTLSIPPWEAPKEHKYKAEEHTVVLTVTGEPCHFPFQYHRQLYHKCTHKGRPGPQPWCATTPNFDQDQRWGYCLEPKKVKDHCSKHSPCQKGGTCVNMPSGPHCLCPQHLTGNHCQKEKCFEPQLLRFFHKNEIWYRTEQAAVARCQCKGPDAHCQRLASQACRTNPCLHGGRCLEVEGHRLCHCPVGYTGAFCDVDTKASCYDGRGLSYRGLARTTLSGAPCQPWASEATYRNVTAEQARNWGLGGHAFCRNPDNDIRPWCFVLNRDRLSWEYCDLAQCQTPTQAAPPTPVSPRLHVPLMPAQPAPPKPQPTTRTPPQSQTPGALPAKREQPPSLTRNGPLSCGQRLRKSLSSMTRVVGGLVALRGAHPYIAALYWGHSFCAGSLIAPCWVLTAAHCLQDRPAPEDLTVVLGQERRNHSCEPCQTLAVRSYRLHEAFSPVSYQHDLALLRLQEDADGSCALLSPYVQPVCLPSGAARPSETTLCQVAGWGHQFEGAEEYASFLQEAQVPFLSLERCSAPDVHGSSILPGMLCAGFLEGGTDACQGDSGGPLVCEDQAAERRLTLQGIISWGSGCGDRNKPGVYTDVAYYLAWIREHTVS

[1] = target: DNA dC->dU-editing enzyme APOBEC-3A (Homo sapiens, UniProt P31941); assay: A3A deaminase inhibition for selectivity – biochemical, dose response (AID 504722); format: functional
Chain of DNA dC->dU-editing enzyme APOBEC-3A (P31941 whole entry): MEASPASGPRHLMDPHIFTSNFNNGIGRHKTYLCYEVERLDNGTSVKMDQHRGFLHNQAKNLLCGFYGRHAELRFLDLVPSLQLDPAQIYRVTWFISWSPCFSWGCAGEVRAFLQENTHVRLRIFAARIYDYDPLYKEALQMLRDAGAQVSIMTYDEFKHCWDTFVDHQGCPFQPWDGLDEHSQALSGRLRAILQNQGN

[2] = target: Glucose-6-phosphate 1-dehydrogenase (Homo sapiens, UniProt P11413); assay: inhibition of Homo sapiens G6PD, dose series – biochemical, fluorescence, selectivity assay for P. falciparum G6PD inhibitor project, dose response (AID 504792); format: functional
Phosphomannomutase 2 = Phosphomannomutase 2 (Homo sapiens, UniProt O15305); assay: Counter screen SAR assay for PMM2 inhibitors via a fluorescence intensity assay. [Related pubchem assays (depositor defined):AID1545, AID1574]
[3] = target: Phosphoethanolamine/phosphocholine phosphatase (Homo sapiens, UniProt Q8TCT1); assay: SAR assay for compounds that inhibit PHOSPHO1. [Related pubchem assays (depositor defined):AID1545, AID1565, AID1574]
Chain of Phosphoethanolamine/phosphocholine phosphatase (Q8TCT1 whole entry): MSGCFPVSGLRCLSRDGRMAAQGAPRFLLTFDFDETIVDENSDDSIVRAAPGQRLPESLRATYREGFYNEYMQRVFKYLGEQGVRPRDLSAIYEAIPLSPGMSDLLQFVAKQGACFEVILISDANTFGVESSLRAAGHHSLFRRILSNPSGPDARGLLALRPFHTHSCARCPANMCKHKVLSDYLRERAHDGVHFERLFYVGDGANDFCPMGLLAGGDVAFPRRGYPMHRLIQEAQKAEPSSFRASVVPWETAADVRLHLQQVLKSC

[4] = target: DNA dC->dU-editing enzyme APOBEC-3G (Homo sapiens, UniProt Q9HC16); assay: Dose Response confirmation of small molecule APOBEC3G DNA Deaminase Inhibitors via a fluorescence-based single-stranded DNA deaminase assay. [Related pubchem assays (depositor defined):AID493012, AID493028]; format: functional
Chain of DNA dC->dU-editing enzyme APOBEC-3G (Q9HC16 whole entry): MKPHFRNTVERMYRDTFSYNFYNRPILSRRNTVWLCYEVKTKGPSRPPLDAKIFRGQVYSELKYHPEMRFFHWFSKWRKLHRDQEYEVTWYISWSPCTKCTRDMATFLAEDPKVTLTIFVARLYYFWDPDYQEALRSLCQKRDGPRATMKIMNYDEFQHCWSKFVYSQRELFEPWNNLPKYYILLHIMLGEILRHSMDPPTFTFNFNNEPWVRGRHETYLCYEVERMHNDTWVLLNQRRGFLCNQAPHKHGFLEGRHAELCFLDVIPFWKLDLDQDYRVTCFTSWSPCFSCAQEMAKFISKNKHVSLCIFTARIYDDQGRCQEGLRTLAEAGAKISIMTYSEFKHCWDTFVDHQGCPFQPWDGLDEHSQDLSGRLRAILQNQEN

[5] = target: T2, Alkaline phosphatase, tissue-nonspecific isozyme (Homo sapiens, UniProt P05186); assay: potency against alkaline phosphatase TNAP – biochemical, luminescent, dose response, SAR follow-up (AID 1056)
T2 sequence (P05186 whole entry): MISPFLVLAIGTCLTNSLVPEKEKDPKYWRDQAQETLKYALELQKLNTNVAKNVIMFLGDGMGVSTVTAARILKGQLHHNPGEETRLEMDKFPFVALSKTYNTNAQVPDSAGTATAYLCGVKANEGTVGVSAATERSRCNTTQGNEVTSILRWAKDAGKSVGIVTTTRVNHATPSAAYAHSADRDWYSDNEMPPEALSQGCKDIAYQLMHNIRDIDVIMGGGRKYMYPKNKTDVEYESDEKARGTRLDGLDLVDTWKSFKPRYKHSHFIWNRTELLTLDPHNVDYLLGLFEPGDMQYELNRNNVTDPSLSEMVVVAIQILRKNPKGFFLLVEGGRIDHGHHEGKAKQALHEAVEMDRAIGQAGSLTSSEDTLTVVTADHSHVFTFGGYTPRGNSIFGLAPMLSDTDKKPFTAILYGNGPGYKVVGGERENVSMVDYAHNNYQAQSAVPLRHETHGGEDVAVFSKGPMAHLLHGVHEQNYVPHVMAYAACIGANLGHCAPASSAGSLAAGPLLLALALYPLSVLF

Beta-galactosidase = Beta-galactosidase (Escherichia coli, UniProt Q8VNN2); assay: detection-enzyme interference by beta-gal modulators – biochemical, E. coli enzyme, set 3, artefact control for CCR6 antagonist project, dose response (AID 504712); format: functional
Chain of Beta-galactosidase (Q8VNN2 whole entry): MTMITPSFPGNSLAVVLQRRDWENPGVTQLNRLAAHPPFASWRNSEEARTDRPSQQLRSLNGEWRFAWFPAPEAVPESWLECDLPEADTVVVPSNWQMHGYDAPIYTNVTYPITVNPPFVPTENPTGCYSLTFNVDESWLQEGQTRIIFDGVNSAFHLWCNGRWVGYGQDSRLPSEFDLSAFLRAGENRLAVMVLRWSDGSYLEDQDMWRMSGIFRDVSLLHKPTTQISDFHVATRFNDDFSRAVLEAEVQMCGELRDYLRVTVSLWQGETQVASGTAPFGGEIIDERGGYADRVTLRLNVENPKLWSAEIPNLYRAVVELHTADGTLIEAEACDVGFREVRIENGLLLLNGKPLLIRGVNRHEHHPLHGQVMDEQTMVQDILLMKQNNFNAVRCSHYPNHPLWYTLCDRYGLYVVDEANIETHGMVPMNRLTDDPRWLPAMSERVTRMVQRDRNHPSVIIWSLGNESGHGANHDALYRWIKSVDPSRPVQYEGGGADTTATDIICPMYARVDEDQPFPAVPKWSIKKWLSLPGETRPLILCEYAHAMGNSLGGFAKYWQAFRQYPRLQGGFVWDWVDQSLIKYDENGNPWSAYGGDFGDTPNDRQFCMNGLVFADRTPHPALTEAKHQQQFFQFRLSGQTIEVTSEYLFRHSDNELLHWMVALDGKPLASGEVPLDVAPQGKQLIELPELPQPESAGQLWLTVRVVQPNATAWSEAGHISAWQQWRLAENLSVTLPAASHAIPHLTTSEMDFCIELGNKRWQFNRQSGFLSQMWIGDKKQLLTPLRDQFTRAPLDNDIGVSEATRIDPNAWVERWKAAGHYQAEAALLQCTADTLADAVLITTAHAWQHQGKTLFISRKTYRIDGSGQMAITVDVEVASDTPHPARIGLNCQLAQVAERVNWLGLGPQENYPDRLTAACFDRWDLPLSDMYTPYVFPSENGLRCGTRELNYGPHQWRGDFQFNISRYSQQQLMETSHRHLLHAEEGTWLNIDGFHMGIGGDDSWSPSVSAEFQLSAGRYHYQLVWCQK

[6] = target: T3, Intestinal-type alkaline phosphatase (Homo sapiens, UniProt P09923); assay: Dose Response confirmation of uHTS hits from a small molecule inhibitors of human intestinal alkaline phosphatase via a luminescent assay. [Related pubchem assays (depositor defined):AID2544, AID2574]; format: functional
T3 sequence (P09923 whole entry): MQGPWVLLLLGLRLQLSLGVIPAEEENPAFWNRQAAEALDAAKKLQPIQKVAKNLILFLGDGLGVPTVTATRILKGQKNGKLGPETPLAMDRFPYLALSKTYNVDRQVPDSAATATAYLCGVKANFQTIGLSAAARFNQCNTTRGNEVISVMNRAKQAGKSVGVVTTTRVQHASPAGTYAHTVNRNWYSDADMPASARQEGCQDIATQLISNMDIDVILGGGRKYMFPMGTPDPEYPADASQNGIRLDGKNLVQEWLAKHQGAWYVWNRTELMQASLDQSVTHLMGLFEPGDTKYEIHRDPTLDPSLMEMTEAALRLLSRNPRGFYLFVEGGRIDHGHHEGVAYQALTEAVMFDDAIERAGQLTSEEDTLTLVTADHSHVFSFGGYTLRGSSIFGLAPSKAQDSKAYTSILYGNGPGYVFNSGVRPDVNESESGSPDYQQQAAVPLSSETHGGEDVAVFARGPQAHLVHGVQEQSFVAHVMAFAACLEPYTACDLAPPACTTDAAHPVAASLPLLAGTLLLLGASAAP

[7] = target: Alkaline phosphatase, placental type (Homo sapiens, UniProt P05187); assay: human placental alkaline phosphatase inhibition – biochemical, luminescence, confirmation (AID 1512); format: functional
Chain of Alkaline phosphatase, placental type (P05187 whole entry): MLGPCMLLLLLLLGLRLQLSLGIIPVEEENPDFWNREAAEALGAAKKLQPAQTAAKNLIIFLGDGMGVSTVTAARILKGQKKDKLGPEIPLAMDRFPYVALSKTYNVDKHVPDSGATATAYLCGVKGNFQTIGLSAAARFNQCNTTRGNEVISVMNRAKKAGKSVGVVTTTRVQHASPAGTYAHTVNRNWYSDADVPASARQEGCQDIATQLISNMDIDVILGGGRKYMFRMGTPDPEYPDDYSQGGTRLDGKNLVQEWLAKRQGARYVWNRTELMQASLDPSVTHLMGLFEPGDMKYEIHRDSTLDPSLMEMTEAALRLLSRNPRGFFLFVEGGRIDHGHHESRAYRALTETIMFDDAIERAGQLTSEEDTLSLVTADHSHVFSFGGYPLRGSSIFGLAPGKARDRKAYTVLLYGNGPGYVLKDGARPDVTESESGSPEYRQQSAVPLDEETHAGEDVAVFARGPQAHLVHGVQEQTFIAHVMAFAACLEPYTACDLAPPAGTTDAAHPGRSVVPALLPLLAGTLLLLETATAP

ORF 73 = ORF 73 (Human herpesvirus 8, UniProt O40947); assay: KSHV LANA DNA-binding disruption – biochemical, fluorescence polarization, cherry-picked samples, dose response (AID 504725); parameters: species or system Human gammaherpesvirus 8;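 further: fluorescence polarization of a labeled DNA duplex reporting LANA DNA binding; potency is for inhibitors that block LANA binding to the DNA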
Chain of ORF 73 (O40947 whole entry): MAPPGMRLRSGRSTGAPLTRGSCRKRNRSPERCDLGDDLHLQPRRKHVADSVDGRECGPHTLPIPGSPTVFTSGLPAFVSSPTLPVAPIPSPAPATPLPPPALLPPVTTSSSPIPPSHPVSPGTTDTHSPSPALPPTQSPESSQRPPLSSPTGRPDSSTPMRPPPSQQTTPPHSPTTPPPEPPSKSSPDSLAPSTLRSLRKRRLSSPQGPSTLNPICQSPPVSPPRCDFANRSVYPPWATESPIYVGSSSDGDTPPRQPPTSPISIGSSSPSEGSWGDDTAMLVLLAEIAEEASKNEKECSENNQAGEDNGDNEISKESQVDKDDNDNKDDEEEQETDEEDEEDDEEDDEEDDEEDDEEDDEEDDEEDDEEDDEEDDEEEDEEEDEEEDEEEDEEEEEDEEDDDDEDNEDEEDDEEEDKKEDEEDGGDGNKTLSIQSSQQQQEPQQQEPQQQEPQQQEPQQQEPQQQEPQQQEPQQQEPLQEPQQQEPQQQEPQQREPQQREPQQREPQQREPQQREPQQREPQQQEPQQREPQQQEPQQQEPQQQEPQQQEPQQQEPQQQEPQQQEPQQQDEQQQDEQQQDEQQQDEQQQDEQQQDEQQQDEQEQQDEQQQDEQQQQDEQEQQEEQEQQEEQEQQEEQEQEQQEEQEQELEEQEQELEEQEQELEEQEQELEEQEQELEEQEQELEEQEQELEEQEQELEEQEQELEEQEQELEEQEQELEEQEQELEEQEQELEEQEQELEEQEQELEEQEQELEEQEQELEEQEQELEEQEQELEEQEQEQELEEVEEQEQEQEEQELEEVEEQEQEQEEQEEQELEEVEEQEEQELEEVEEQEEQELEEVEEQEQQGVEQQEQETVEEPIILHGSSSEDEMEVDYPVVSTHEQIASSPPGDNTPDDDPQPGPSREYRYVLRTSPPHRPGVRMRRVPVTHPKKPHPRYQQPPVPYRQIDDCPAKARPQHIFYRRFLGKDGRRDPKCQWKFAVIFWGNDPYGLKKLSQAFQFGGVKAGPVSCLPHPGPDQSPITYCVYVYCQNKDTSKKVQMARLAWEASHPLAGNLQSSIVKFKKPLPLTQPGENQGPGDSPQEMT

[8] = target: Intestinal-type alkaline phosphatase (Mus musculus, UniProt P24822); assay: PubChem AID 488785; format: functional
Chain of Intestinal-type alkaline phosphatase (Mus musculus, UniProt P24822) (P24822 whole entry): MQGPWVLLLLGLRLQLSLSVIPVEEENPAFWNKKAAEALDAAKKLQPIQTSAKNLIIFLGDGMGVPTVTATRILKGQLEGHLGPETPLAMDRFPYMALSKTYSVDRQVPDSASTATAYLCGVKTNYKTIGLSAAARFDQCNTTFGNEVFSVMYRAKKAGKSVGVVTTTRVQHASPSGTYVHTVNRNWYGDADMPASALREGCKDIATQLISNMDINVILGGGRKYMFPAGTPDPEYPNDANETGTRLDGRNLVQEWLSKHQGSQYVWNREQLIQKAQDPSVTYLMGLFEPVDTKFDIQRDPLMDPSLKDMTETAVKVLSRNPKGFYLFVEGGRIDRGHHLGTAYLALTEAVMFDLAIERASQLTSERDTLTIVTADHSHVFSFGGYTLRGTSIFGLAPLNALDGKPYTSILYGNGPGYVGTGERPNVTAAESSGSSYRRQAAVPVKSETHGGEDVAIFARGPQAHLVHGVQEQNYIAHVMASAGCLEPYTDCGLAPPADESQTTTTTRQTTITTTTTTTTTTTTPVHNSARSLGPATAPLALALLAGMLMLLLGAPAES

[9] = target: T2, Alkaline phosphatase, tissue-nonspecific isozyme; assay: TNAP enzyme inhibition by screening hits, dose response, selectivity assay for mouse IAP inhibitor project, biochemical, human TNAP, uHTS hits (AID 488906); format: functional
[10] = target: T3, Intestinal-type alkaline phosphatase; assay: inhibition of human intestinal alkaline phosphatase – biochemical, dose response (AID 488876); format: functional
[11] = target: T4, Histone-lysine N-methyltransferase NSD2 (Homo sapiens, UniProt O96028); format: biochemical
T4 sequence (O96028 whole entry): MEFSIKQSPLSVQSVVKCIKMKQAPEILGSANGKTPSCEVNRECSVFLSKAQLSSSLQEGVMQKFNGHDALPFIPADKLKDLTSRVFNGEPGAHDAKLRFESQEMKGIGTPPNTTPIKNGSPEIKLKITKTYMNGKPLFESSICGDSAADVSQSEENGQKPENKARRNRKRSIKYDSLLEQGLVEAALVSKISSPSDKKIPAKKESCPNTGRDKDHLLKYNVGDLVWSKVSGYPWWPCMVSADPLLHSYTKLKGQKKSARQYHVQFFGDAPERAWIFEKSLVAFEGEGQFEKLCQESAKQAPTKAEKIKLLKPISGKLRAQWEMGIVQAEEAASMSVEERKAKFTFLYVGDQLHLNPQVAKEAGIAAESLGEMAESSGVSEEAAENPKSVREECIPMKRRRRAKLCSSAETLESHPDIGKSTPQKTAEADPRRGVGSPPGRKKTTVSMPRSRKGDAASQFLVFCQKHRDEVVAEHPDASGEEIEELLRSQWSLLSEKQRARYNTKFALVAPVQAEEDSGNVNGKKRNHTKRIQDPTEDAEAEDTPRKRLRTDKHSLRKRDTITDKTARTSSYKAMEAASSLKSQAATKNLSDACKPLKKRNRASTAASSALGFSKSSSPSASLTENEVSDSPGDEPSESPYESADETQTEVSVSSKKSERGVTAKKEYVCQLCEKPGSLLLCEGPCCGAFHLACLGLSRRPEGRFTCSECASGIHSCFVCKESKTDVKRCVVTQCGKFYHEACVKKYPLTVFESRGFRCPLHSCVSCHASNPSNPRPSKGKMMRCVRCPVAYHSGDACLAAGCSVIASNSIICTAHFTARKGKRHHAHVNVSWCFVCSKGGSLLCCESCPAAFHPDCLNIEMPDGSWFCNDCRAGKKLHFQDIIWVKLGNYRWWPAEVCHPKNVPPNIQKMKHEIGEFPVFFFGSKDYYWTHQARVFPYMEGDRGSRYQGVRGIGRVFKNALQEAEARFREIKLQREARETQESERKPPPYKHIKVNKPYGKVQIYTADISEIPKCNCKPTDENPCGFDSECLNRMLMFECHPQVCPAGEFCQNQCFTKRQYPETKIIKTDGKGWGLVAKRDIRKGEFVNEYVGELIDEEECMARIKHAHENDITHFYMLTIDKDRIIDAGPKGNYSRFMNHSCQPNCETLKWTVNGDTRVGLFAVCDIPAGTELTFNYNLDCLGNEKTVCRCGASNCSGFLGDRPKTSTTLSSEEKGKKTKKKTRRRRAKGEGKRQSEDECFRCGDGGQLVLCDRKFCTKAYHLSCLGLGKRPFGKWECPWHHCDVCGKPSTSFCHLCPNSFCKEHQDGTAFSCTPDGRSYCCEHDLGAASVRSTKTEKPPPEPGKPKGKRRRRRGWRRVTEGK

[12] = target: 1-phosphatidylinositol 4,5-bisphosphate phosphodiesterase gamma-1 (Homo sapiens, UniProt P19174); assay: Counterscreen for inhibitors of phospholipase C isozymes (PLC-B3): Fluorescence-based biochemical high throughput dose response assay to identify inhibitors of phospholipase C isozymes (PLC-gamma1).
[13] = target: 1-phosphatidylinositol 4,5-bisphosphate phosphodiesterase beta-3 (Homo sapiens, UniProt Q01970); assay: Fluorescence-based biochemical high throughput dose response assay to identify inhibitors of phospholipase C isozymes (PLC-B3).
[14] = target: T5, Short transient receptor potential channel 4 (Mus musculus, UniProt Q9QUQ5); assay: potentiation of DAMGO-evoked TRPC4 calcium signal – cell-based, HEK293 TRPC4/mu-opioid, Fluo-4 calcium, EC20 DAMGO, dose response (AID 434941); format: functional
T5 sequence (Q9QUQ5 whole entry): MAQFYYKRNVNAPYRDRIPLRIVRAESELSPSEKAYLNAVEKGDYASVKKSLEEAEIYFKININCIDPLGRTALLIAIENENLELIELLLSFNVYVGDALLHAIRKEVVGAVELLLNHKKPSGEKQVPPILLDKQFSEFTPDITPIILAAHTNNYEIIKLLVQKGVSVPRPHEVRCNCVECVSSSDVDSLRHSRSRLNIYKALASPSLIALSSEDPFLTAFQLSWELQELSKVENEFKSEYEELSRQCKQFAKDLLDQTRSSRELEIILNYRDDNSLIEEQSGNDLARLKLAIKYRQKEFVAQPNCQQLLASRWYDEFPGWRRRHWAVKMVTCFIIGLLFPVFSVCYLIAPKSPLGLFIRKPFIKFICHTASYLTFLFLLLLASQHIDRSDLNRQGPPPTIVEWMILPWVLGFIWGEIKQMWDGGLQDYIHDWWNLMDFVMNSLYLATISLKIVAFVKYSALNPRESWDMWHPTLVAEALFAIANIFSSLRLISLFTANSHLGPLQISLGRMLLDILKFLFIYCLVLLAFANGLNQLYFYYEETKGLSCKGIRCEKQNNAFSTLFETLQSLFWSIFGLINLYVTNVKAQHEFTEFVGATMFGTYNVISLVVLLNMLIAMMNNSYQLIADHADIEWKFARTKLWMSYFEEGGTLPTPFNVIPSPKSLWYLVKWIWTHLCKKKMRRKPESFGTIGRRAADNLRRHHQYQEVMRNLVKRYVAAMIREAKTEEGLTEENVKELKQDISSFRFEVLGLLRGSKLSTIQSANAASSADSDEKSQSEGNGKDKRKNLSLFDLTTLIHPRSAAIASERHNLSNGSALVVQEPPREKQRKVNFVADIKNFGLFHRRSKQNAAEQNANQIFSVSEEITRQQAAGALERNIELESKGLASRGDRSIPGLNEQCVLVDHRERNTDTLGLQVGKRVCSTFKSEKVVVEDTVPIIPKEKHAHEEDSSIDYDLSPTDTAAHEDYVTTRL

[15] = target: Potassium voltage-gated channel subfamily KQT member 2 (Rattus norvegicus, UniProt O88943); assay: potentiation of rat KCNQ2 current – cell-based, retigabine-insensitive compounds, dose response (AID 2654); format: functional
Caspase-3 = target: T6, Caspase-3 (Homo sapiens, UniProt P42574); assay: activation of caspase-3 zymogen – biochemical, absorbance, dose response (AID 489014)
T6 sequence (P42574 whole entry): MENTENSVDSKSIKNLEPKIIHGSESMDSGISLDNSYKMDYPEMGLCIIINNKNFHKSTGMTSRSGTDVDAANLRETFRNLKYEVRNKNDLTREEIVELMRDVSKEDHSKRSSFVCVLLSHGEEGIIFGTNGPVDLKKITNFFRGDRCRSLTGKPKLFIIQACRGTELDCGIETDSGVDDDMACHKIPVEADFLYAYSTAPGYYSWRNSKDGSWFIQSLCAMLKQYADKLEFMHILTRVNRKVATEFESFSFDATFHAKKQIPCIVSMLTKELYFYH

Caspase-7 = Caspase-7 (Homo sapiens, UniProt P55210); assay: activation of caspase-7 zymogen – biochemical, absorbance, counter-screen for procaspase-3 activator project, dose response (AID 489013)
Chain of Caspase-7 (P55210 24-198 limits assumed): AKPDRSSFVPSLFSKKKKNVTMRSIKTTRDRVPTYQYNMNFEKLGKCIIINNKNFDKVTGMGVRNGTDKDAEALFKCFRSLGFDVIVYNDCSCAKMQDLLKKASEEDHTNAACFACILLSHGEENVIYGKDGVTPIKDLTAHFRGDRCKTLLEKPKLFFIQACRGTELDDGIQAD
Chain of Caspase-7 (P55210 207-303 limits assumed): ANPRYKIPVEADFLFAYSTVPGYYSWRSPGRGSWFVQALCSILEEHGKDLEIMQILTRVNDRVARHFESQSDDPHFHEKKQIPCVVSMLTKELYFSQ

- IC50 (Coagulation factor XII): > 50 µM (inactive)
Structure (SMILES): CCOC(=O)CSc1nnc(CNC(=O)Cc2ccccc2)n1C

- AC50 (ORF 73): 47.2 µM (active)
- IC50 [8]: 6.43 µM (active)
- IC50 [9]: > 100 µM (inactive)
- IC50 [10]: > 100 µM (inactive)
- AC50 [11]: 16.1 µM (active)
- IC50 [12]: > 122 µM (inactive)
- IC50 [13]: > 122 µM (inactive)
Structure (SMILES): O=C(CCCN1C(=O)/C(=C\c2ccco2)SC1=S)Nc1ccc(O)cc1C(=O)O

- EC50 [15]: 10.7 µM (active)
Structure (SMILES): Cc1cc(C)cc(NC(=O)Nc2cccnc2)c1

Second part, the molecule before the results:

Structure (SMILES): O=c1c2cc(F)ccc2sn1-c1ccc(F)cc1
- IC50 [1]: > 100 µM (inactive)
- IC50 [2]: 16.7 µM (active)
- IC50 (Phosphomannomutase 2): 86.9 µM (active)
- IC50 [3]: > 10 µM (inactive)
- IC50 [4]: 15.5 µM (active)
- IC50 [5]: > 100 µM (inactive)

Structure (SMILES): CCCOc1cccc(C(=O)NC(=S)Nc2cccc(C(F)(F)F)c2)c1
- IC50 (Beta-galactosidase): > 66.6 µM (inactive)

Structure (SMILES): Cc1cc2nc(C3CCN(Cc4nnnn4Cc4cccs4)CC3)[nH]c2cc1C
- IC50 [6]: > 100 µM (inactive)
- IC50 [7]: 2.73 µM (active)
- IC50 [5]: 5.64 µM (active)

Structure (SMILES): COc1ccc(/N=C(\C)C2=C(O)C(=O)N(CCO)C2c2ccc([N+](=O)[O-])cc2)cc1 (configuration not stated)
- EC50 [14]: 0.47 µM (active)

Structure (SMILES): CC1(C)CC(=O)C2=C(C1)c1c(ccc3ccccc13)NC2c1ccc(Br)o1 (configuration not stated)
- EC50 (Caspase-3): > 85.2 µM (inactive)
- EC50 (Caspase-7): > 85.2 µM (inactive)
